Results on two compounds are retold here after patent US12280044B2, “Proteolysis-targeting chimera molecule and preparation method and use thereof” (GUANGZHOU MEDICAL UNIVERSITY, priority 2022, dated 2025).

Data set [1] has as its system zebrafish. In words: Zebrafish experiment: melanin production in the back (gray value). The format is in vivo. The method, then: (§1) Cultivation conditions for zebrafish and fish eggs: a temperature: 28° C.±1° C.; light: irradiation with a fluorescent lamp; and a light/dark cycle: 14 h light/10 h dark.
1. A specific experimental method was as follows: • (1) In the afternoon of day 1, fish mating was conducted to produce 800 to 1,000 fish eggs in a same batch. […] In the afternoon of day 2, water was replaced by an E3 medium including a sample in a corresponding experimental group. • (3) Every morning thereafter, the original medium was replaced by a fresh E3 medium including a sample in a corresponding experimental group. • (4) After fish came out from an egg membrane, the egg membrane was removed, the plate was washed twice with an E3 medium, and an E3 medium including a sample in a corresponding experimental group was added, where a date on which the fish came out from the egg membrane was recorded as day 0. • (5) From day 1 to day 5, after a medium was changed every morning, 15 fish were randomly selected from each experimental group and tested under a stereo microscope to measure a gray value of a back. Survival rates of zebrafish under different drug treatments were counted.

For data set [2], the system named is zebrafish. Nature of the data set: Zebrafish experiment: survival rates under drug treatment. The format is in vivo. The method, then:
as §1
1. A specific experimental method was as follows: • (1) In the afternoon of day 1, fish mating was conducted to produce 800 to 1,000 fish eggs in a same batch. Experimental groups: an untreated group (negative control), a TYR-4 drug group A3 (10 μM), an arbutin group 1 (10 μM), and an arbutin group 2 (20 mM). • (2) In the morning of day 2, fish eggs were collected and dispensed in a 24-well plate with about 10 embryos per well, where 12 wells were set for each treatment group, that is, about 120 embryos were adopted for each treatment group. In the afternoon of day 2, water was replaced by an E3 medium including a sample in a corresponding experimental group. • (3) Every morning thereafter, the original medium was replaced by a fresh E3 medium including a sample in a corresponding experimental group. • (4) After fish came out from an egg membrane, the egg membrane was removed, the plate was washed twice with an E3 medium, and an E3 medium including a sample in a corresponding experimental group was added, where a date on which the fish came out from the egg membrane was recorded as day 0. • (5) From day 1 to day 5, after a medium was changed every morning, 15 fish were randomly selected from each experimental group and tested under a stereo microscope to measure a gray value of a back. Survival rates of zebrafish under different drug treatments were counted.

Data set [3] concerns zebrafish. In words: Zebrafish experiment: melanin precipitate after lysis on day 5. The note with it: 10 μM. The format is in vivo. As to the method:
2. After photographing was completed on day 5, 100 zebrafish were taken from each group (only 80 to 90 live fish were left in the 10 μM arbutin group), transferred to a 1.5 mL EP tube, and washed twice with pure water, then 500 μL of 1 M Tris-HCl with a pH of 8.0 was added, ultrasonic lysis was conducted on ice (40% power, on 3 s/off 2 s per cycle, and ultrasonic time: 10 min), and a resulting lysis system was centrifuged at 12,000 rpm and 4° C. for 15 min to obtain a melanin precipitate.

A short description of data set [4]: Performance test: cytotoxicity. Type of data set: cell-based. As to the method:
(§2) The cytotoxicity, TYR-inhibiting efficiency, and solubility of the molecule A3 were tested.

A short description of data set [5]: Performance test: solubility. Type of data set: physicochemical. The note with it: organic solvent or mixture; in DMSO. As to the method:
as §2

In data set [6] the target is T1, TYR (Homo sapiens, UniProt P14679).
T1 sequence (P14679 19-529): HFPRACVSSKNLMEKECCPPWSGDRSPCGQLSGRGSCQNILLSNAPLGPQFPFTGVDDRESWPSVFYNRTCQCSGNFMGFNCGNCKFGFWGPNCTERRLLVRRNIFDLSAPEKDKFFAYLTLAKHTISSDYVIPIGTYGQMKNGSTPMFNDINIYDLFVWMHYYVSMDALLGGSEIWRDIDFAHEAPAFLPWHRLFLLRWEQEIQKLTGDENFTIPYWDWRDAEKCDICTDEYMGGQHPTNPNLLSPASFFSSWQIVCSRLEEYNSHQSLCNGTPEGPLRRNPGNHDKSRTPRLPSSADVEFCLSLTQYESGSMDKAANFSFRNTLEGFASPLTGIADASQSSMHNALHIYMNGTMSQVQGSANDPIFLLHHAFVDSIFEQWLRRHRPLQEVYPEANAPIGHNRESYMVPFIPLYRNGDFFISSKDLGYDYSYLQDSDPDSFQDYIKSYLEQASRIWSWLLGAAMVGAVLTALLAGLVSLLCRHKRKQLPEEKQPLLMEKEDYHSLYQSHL
Nature of the data set: Performance test: TYR-inhibiting efficiency. The format is cell-based. Also noted: endogenous in cells. As to the method: as §2
The PROTAC molecule of the present application has excellent solubility and safety (IC50>200 μM) and a low effective concentration (1 μM to 10 μM).

For data set [7], the target named is T1, TYR. In words: TYR protein level by western blot in human melanoma cell line A375. Also noted: endogenous in cells; host or cells: MNT-1 human melanoma cells. The note with it: A375 cells, 24 h, 0.001-10 μmol/L, WB. The format is cell-based. As to the method:
The human melanoma cell line A375 was treated for 24 h with the molecule A3 at a concentration gradient, and then a protein sample was collected and tested by western blot (WB) to determine a protein level of TYR. In the concentration gradient, final concentrations of the molecule A3 were 0.001 μmol/L, 0.01 μmol/L, 0.1 μmol/L, 1 μmol/L, and 10 μmol/L, respectively.

Data set [8] addresses T1, TYR. In words: TYR protein level by western blot in human melanoma cell line MNT-1. Type of data set: cell-based. Set-up: endogenous in cells; host or cells: MNT-1 human melanoma cells. The note with it: MNT-1 cells, 24 h, 0.001-10 μmol/L, WB. As to the method:
The human melanoma cell line MNT-1 was treated for 24 h with the molecule A3 at a concentration gradient, and then a protein sample was collected and tested by WB to determine a protein level of TYR. In the concentration gradient, final concentrations of the molecule A3 were 0.001 μmol/L, 0.01 μmol/L, 0.1 μmol/L, 1 μmol/L, and 10 μmol/L, respectively.
In general terms: Immunoblotting shows a protein as a band on a membrane.

The target in data set [9] is T1, TYR. Nature of the data set: Degradation pathway detection with proteasome inhibitor MG132 in MNT-1 cells (WB of TYR). Type of data set: cell-based. Also noted: endogenous in cells; host or cells: MNT-1 human melanoma cells. Conditions: 1 or 10 μM A3 + 10 μM MG132, 24 h. The text has this: A molecular mechanism of the PROTAC molecule to degrade a target protein is as follows: molecular elements at two ends of the PROTAC molecule bind to the target protein and an ubiquitin ligase, respectively, such that the target protein is ubiquitinated and thus degraded by a proteasome. A proteasome inhibitor MG132 was used to determine whether an impact of the PROTAC molecule on a protein level of TYR was based on a proteasome degradation pathway.
A specific treatment method included the following steps: • (1) MNT-1 cells were plated on a 6-well plate and allowed to grow adherently until a cell confluency was 80%. • (2) The cells were treated according to the following groups: • (a) a normal control group; (b) a 1 μM A3 treatment group; (c) a 10 μM A3 treatment group; (d) a 10 μM MG132 treatment group; (e) a 1 μM A3+10 μM MG132 treatment group; and (f) a 10 μM A3+10 μM MG132 treatment group. • (3) 24 h after a treatment, cells in each group were collected and lysed, and a resulting total protein lysate was collected and tested by WB to determine an expression level of TYR.

`O=C1CCC(N2Cc3c(NC(=O)CCCCCCNC(=O)c4cc[nH]c(=S)c4)cccc3C2=O)C(=O)N1` (stereo not shown) [A3]: in the data set with zebrafish [1] (10 μM, day 1 to day 5), the “inhibitory effect on melanin production in zebrafish (gray value of back)” value was “significant inhibitory effect on melanin production in zebrafish”. For the same compound, in the data set on zebrafish [1] (same concentration (10 μM)), the “effect on melanin production compared with arbutin” value is listed as “better effect than common whitening agents such as arbutin”. Further, the “toxic and side effects, death” value in the data set on zebrafish [2] (effective concentration (10 μM)) is “does not have any toxic and side effects and does not cause death”. For the same compound, the “melanin precipitate amount versus untreated group” value with zebrafish [3] is “significantly smaller than the melanin precipitate amount in the untreated group”. Also, the IC50 (commonly the concentration that inhibits the measured activity by half) in data set [4] is over 200 µM. In addition, in data set [5], the solubility (in general, the dissolved amount per volume that the medium holds) is over 523 mg/mL. Also, on TYR [6], the EC50 – broadly, the concentration that produces a half-maximal response – was under 10 µM. Besides, the “inhibitory effect on TYR protein level” value is on record as “has an inhibitory effect on TYR in the cell line A375” on TYR [7] and “has a significant inhibitory effect on TYR in the cell line MNT-1” against TYR [8]. Besides, the “degradation effect on TYR after MG132 is added” value at TYR [9] is “significantly inhibited after MG132 is added”.

Take `OC[C@H]1O[C@@H](Oc2ccc(O)cc2)[C@H](O)[C@@H](O)[C@@H]1O` [arbutin]: the “day on which death occurs” value in the data set on zebrafish [2] (10 μM) was 4 days. In the data set on zebrafish [2] (10 μM, day 5), the live fish left was in the range of 80 to 90 and the survival rate entry was “about 80%”. The “day on which death occurs” value in the data set with zebrafish [2] (20 mM) was 3 days. In addition, the survival entry in the data set on zebrafish [2] (20 mM, day 5) is recorded as “basically dies”. In addition, the “melanin precipitate amount versus untreated group” value in the data set on zebrafish [3] is given as “significantly smaller than the melanin precipitate amount in the untreated group”.
